Test results published in ChEMBL document CHEMBL1128816, “Synthesis and structure-activity relationships of new acetylcholinesterase inhibitors: Morpholinoalkylcarbamoyloxyeseroline derivatives” (Bioorg Med Chem Lett, 1995).

Target: Acetylcholinesterase (Homo sapiens, UniProt P22303)
Test: Inhibition of Acetylcholinesterase (AChE) from human RBC

Acetylcholinesterase, sequence (P22303 whole entry): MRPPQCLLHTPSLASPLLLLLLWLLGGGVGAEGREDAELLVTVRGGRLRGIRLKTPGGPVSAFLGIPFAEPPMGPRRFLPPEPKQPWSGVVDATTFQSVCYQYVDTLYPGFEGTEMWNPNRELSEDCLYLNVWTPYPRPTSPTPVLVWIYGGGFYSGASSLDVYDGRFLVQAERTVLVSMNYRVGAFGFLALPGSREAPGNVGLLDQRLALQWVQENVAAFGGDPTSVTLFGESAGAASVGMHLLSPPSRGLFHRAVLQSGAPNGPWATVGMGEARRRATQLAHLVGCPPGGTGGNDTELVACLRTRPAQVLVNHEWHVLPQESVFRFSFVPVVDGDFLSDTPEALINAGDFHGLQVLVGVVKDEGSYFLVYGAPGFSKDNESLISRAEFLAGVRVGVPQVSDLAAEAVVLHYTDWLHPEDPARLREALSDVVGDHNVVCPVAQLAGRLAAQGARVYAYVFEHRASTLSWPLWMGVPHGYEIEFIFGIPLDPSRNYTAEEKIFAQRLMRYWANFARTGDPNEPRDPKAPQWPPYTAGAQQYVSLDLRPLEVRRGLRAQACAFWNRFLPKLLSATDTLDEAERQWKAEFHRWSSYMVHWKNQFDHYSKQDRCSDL

Row | SMILES | IC50 [µM]
1 | CN1CC[C@@]2(C)c3cc(OC(=O)NCCCCN4CCOCC4)ccc3N(C)[C@@H]12 | 21
2 | CN1CC[C@@]2(C)c3cc(OC(=O)NCCCCCCCCN4CCOCC4)ccc3N(C)[C@@H]12 | 0.08
